In brackets after ≈: the same amount, converted by molar mass. Activity calls are given as the source filed them. The rule behind the calls is not given here.
Legend:
HEK293 = test: Cytotoxicity against HEK293 cells after 48 hrs by SRB assay; format: cell-based; conditions: human, hek293, 48 h
Escherichia coli [1] = test: Antibacterial activity against Escherichia coli MTCC 1563 at 0.4 mg/50 uL incubated overnight by agar-well diffusion analysis; format: functional
Staphylococcus aureus [2] = test: Antibacterial activity against Staphylococcus aureus at 0.4 mg/50 uL incubated overnight by agar-well diffusion analysis; format: functional
[3] = Cytotoxicity against human HCT15 cells assessed as cell growth at 80 ug/ml after 48 hrs by SRB assay; format: functional; conditions: HCT-15, 48 h, read-out: Activity
Pseudomonas aeruginosa [4] = test: Antibacterial activity against Pseudomonas aeruginosa MTCC 6642 at 0.4 mg/50 uL incubated overnight by agar-well diffusion analysis; format: functional
Klebsiella pneumoniae [5] = test: Antibacterial activity against Klebsiella pneumoniae at 0.4 mg/50 uL incubated overnight by agar-well diffusion analysis; format: functional
NCI-H226 [6] = test: Cytotoxicity against human NCI-H226 cells after 48 hrs by SRB assay; format: functional; conditions: NCI-H226, 48 h
[7] = Cytotoxicity against human HCT15 cells after 48 hrs by SRB assay; format: functional; conditions: HCT-15, 48 h; for CC50: read-out: LC50 (the source's name)
NCI-H226 [8] = test: Cytotoxicity against human NCI-H226 cells assessed as cell growth at 80 ug/ml after 48 hrs by SRB assay; format: functional; conditions: NCI-H226, 48 h, read-out: Activity
Pseudomonas aeruginosa [9] = test: Antibacterial activity against Pseudomonas aeruginosa MTCC 6642 at 0.04 mg/50 uL incubated overnight by agar-well diffusion analysis; format: functional
Staphylococcus aureus [10] = test: Antibacterial activity against Staphylococcus aureus at 0.04 mg/50 uL incubated overnight by agar-well diffusion analysis; format: functional
Klebsiella pneumoniae [11] = test: Antibacterial activity against Klebsiella pneumoniae at 0.04 mg/50 uL incubated overnight by agar-well diffusion analysis; format: functional
Escherichia coli [12] = test: Antibacterial activity against Escherichia coli MTCC 1563 at 0.04 mg/50 uL incubated overnight by agar-well diffusion analysis; format: functional

SMILES | diameter of the inhibition zone (DIZ) (Escherichia coli [1]) | diameter of the inhibition zone (DIZ) (Staphylococcus aureus [2]) [mm] | diameter of the inhibition zone (DIZ) (Pseudomonas aeruginosa [4]) [mm] | diameter of the inhibition zone (DIZ) (Klebsiella pneumoniae [5]) | also measured
Cc1ccc(-c2cn(CC3=C(Cl)c4cccc(C)c4OCC3)nn2)cc1 | 20 mm | 7 | 15 | 17 mm | Activity (HEK293): Non-toxic; growth at 80 µg/mL [3]: 58%
Cc1ccc2c(c1)C(Cl)=C(Cn1cc(COc3ccc4ccc(=O)oc4c3)nn1)CCO2 | 16 mm | 10 | 18 |  | Activity (HEK293): Non-toxic; GI50 (NCI-H226 [6]): 41.3 µg/mL (≈ 91.8 µM); LC50 (NCI-H226 [6]): > 80 µg/mL; TGI (NCI-H226 [6]): > 80 µg/mL; GI50 [7]: 52.5 µg/mL (≈ 117 µM); TGI [7]: > 80 µg/mL; CC50 [7]: > 80 µg/mL; growth at 80 µg/mL [3]: 33%; growth at 80 µg/mL (NCI-H226 [8]): 8%
Cc1cc(=O)oc2cc(OCc3cn(CC4=C(Cl)c5cc(Cl)ccc5OCC4)nn3)ccc12 | 14 mm | 12 | 18 |  | 
Cc1cc(=O)oc2cc(OCc3cn(CC4=C(Cl)c5ccccc5OCC4)nn3)ccc12 | 11 mm | 11 | 12 | 7 mm | 
Cc1ccc(-c2cn(CC3=C(Cl)c4cc(C)ccc4OCC3)nn2)cc1 | 10 mm | 8 | 10 |  | 
Cc1ccc2c(c1)C(Cl)=C(Cn1cc(COc3ccc4c(C)cc(=O)oc4c3)nn1)CCO2 | inactive |  | 16 | 12 mm | 
Cc1ccc(-c2cn(CC3=C(Cl)c4ccccc4OCC3)nn2)cc1 | 9 mm | 10 | 12 |  | Activity (HEK293): Non-toxic; growth at 80 µg/mL [3]: 55%
ClC1=C(Cn2cc(COc3cccc4cccnc34)nn2)CCOc2ccc(Cl)cc21 | 10 mm | 12 | 10 | 12 mm | 
Cc1cccc2c1OCCC(Cn1cc(-c3ccccc3)nn1)=C2Cl | 25 mm |  | 11 | 9 mm | 
CCn1cc(C(=O)O)c(=O)c2cc(F)c(N3CCN(C)CC3)cc21 [PEFLOXACIN] |  |  |  |  | diameter of the inhibition zone (DIZ) (Pseudomonas aeruginosa [9]): 28 mm; diameter of the inhibition zone (DIZ) (Staphylococcus aureus [10]): 36 mm; diameter of the inhibition zone (DIZ) (Klebsiella pneumoniae [11]): 35 mm; diameter of the inhibition zone (DIZ) (Escherichia coli [12]): 31 mm
O=c1ccc2ccc(OCc3cn(CC4=C(Cl)c5ccccc5OCC4)nn3)cc2o1 | inactive | 10 | 12 | 11 mm | 
COc1cccc2c1C(=O)c1c(O)c3c(c(O)c1C2=O)C[C@@](O)(C(=O)CO)C[C@@H]3O[C@H]1C[C@H](N)[C@H](O)[C@H](C)O1 [DOXORUBICIN] |  |  |  |  | GI50 (NCI-H226 [6]): < 10 µg/mL; TGI (NCI-H226 [6]): < 10 µg/mL; GI50 [7]: < 10 µg/mL; TGI [7]: 36.1 µg/mL (≈ 66.4 µM); CC50 [7]: > 80 µg/mL
Cc1ccc2c(c1)C(Cl)=C(Cn1cc(-c3ccccc3)nn1)CCO2 |  |  | 16 | 9 mm | 
Cc1cccc2c1OCCC(Cn1cc(COc3cccc4cccnc34)nn1)=C2Cl |  | 10 | 18 |  | 
Cc1ccc(-c2cn(CC3=C(Cl)c4cc(Cl)ccc4OCC3)nn2)cc1 | 13 mm |  | 12 | 10 mm | 
ClC1=C(Cn2cc(-c3ccccc3)nn2)CCOc2ccccc21 | inactive | 7 | 13 | 18 mm | Activity (HEK293): Non-toxic; growth at 80 µg/mL [3]: 61%; growth at 80 µg/mL (NCI-H226 [8]): 73%
O=c1ccc2ccc(OCc3cn(CC4=C(Cl)c5cc(Cl)ccc5OCC4)nn3)cc2o1 | inactive | 10 | 11 | 12 mm | 
Cc1cccc2c1OCCC(Cn1cc(COc3ccc4c(C)cc(=O)oc4c3)nn1)=C2Cl |  | 11 | 11 |  | 
Cc1cccc2c1OCCC(Cn1cc(COc3ccc4ccc(=O)oc4c3)nn1)=C2Cl |  | 12 | 14 | inactive | Activity (HEK293): Non-toxic; growth at 80 µg/mL [3]: 86%
ClC1=C(Cn2cc(COc3cccc4cccnc34)nn2)CCOc2ccccc21 | 11 mm | 8 |  | inactive | 
